Results on eight compounds are retold here after patent publication US4349378A, “Compounds useful as pesticides” (FBC Limited, priority 1978, dated 1982).

In one assay the test system is Barley. As to the kind of experiment: (II) surface spray, growth regulatory or herbicidal effects. It counts as in vivo, Hordeum vulgare. Conditions: 21 days, 100=complete suppression. From the text: (§1) (II) An aqueous suspension together with 1000 ppm of the wetting agent Lissapol NX. The surfaces of an additional set of pans with seeds already sown were then sprayed with 2.8 or 1.4 kg/ha in 450 liters/hectare, and the pans kept in the controlled environment room for 21 days.
(§2) The plants were then visually assessed for any growth regulatory or herbicidal effects. All differences from an untreated control were scored on a scale from 0-100, where 0 signifies no effect and 100 signifies complete suppression.
(§3) The results are shown in the following table where I stands for soil incorporation and II for surface spray.

The test system of the next assay is Cotton. The description is as above. The class given is in vivo, Gossypium sp. The settings on record: 21 days, 100=complete suppression.
Description: as §1, §2, §3

A further assay concerns Carrot. The assay is described as above. The settings on record: 21 days, 100=complete suppression. The class given is in vivo, Daucus carota.
Description: as §1, §2, §3

In another assay the test system is Wheat. The description is as above. It counts as in vivo, Triticum aestivum. Conditions: 21 days, 100=complete suppression.
Description: as §1, §2, §3

A further assay concerns Tomato. Described as above. It counts as in vivo, Lycopersicon esculentum. The settings on record: 21 days, 100=complete suppression.
Description: as §1, §2, §3

The next assay relates to Barnyard Grass. The description is as above. It counts as in vivo, Echinochloa crus-galli. Conditions: II surface spray 1.4 kg/ha (line 3.25 ppm), 21 days, 100=complete suppression.
Description: as §1, §2, §3

The subject of the next assay is Rice. The description is as above. The settings on record: 21 days, 100=complete suppression. It counts as in vivo, Oryza sativa.
Description: as §1, §2, §3

In another assay the test system is Fathen. The assay can be described thus: (I) soil incorporation, growth regulatory or herbicidal effects. It counts as in vivo, Chenopodium album. The settings on record: I soil incorporation 6.5 ppm, 21 days, 100=complete suppression.
Description: (§4) (I) an attaclay/sand dust and incorporated in John Innes I potting compost at a rate equivalent to 6.5 and 3.25 parts per million weight/volume of active ingredient to soil and placed in anodised aluminium pans, 19 cm long×9.5 cm wide×5.0 cm high. This is approximately equivalent to a surface application of 2.8 and 1.4 kg active ingredient per hectare cultivated to a depth of 5 cm. Seeds of the species listed below were sown in the treated soil, one species per pan, watered and placed in a controlled environment room (22° C.; 65-85% relative humidity and 14 hours artificial illumination at 17000 lux) for 21 days.
as §2, §3

A further assay has as its system Chickweed. The assay is described as above. Conditions: I soil incorporation 6.5 ppm, 21 days, 100=complete suppression. It counts as in vivo, Stellaria media.
Description: as §4, §2, §3

The next assay concerns Xanthomonas malvacearum. As to the kind of experiment: bacteriostatic test in dextrose nutrient broth. Conditions: 1,000 and 200 ppm weight/volume; 8 days at 25° C. It counts as cell-based. As for the experimental part: A 1% suspension/solution of the product of Example 157 in polyethylene glycol (Carbowax 400) was added to a dextrose nutrient broth to give a concentration of 1,000 parts per million (ppm) weight/volume of medium. Dilution in test tubes was then carried out to give a concentration of 200 ppm weight/volume of medium. To 8 ml quantities of broth was added 0.2 ml of a dense broth culture of the bacterium causing black arm of cotton, Xanthomonas malvacearum. After 8 days incubation at 25° C., all the broth specimens were examined for signs of bacterial growth.

For another assay, the system named is acetylcholinesterase. The assay can be described thus: standard test indicative of insecticidal activity, inhibition of acetylcholinesterase. It counts as biochemical. Conditions: 100 micromolar.
Where [1] appears, read: II surface spray 1.4 kg/ha (line 3.25 ppm).
Where [2] appears, read: II surface spray 2.8 kg/ha (line 6.5 ppm).

On to `CS(=O)(=O)N(CC(N)=S)c1ccc(Cl)c(Cl)c1` [Example 85, N-(thiocarbamoylmethyl)-3,4-dichloromethanesulphonanilide], for which the “growth regulatory or herbicidal effect score” value in the assay on Barley (setting [1]), with Barley (setting [2]), in the assay on Cotton (setting [1]), in the assay with Cotton (setting [2]), in the assay with Carrot (setting [1]) and with Carrot (setting [2]) was 0 in each case. In addition, the “growth regulatory or herbicidal effect score” value in the assay with Wheat (setting [1]) came out at 0; with Wheat (setting [2]) it was 0; in the assay with Tomato (setting [1]), 0; in the assay on Tomato (setting [2]), 0; with Barnyard Grass it was 90; with Rice (setting [1]), 0. Besides, the “growth regulatory or herbicidal effect score” value in the assay with Rice (setting [2]) amounted to 0.
For the compound `Cc1ccc(N(CC#N)S(C)(=O)=O)cc1Cl` [Example 131], the “growth regulatory or herbicidal effect score” value with Barley (setting [1]), in the assay with Barley (setting [2]), in the assay on Cotton (setting [1]), in the assay on Cotton (setting [2]), in the assay with Carrot (setting [1]) and with Carrot (setting [2]) was 0 in each case. The “growth regulatory or herbicidal effect score” value in the assay on Wheat (setting [1]), in the assay on Wheat (setting [2]), with Tomato (setting [1]), in the assay with Tomato (setting [2]), in the assay with Rice (setting [1]) and in the assay with Rice (setting [2]) was 0 throughout.
As to `CCS(=O)(=O)N(CC#N)c1ccc(Cl)c(Cl)c1` [Example 137], the “growth regulatory or herbicidal effect score” value in the assay on Barley (setting [1]), in the assay with Barley (setting [2]), in the assay with Cotton (setting [1]), in the assay with Cotton (setting [2]), in the assay on Carrot (setting [1]) and in the assay on Carrot (setting [2]) was 0 each time. Also, the “growth regulatory or herbicidal effect score” value is listed as 0 with Wheat (setting [1]); 0 with Wheat (setting [2]); 0 in the assay on Tomato (setting [1]); 0 in the assay with Tomato (setting [2]); 90 with Barnyard Grass; 0 in the assay on Rice (setting [1]). In addition, the “growth regulatory or herbicidal effect score” value with Rice (setting [2]) is reported as 0.
On to `CCOC(=O)C(CC)N(c1c(C)cccc1C)S(C)(=O)=O` (centres unmarked) [Example 95], for which the “growth regulatory or herbicidal effect score” value with Fathen is recorded as 100; in the assay with Chickweed, 90.
Turning to `CS(=O)(=O)N(CC(N)=S)c1cccc(Cl)c1Cl` [Example 157], the bacterial growth entry with Xanthomonas malvacearum was “No growth”.
Consider `CCS(=O)(=O)N(CC(N)=S)c1ccc(Cl)c(Cl)c1` [Example 156], for which the “growth regulatory or herbicidal effect score” value with Barley (setting [1]), in the assay on Barley (setting [2]), with Cotton (setting [1]), in the assay with Cotton (setting [2]), in the assay on Wheat (setting [1]) and with Wheat (setting [2]) was 0 in each case. Also, the “growth regulatory or herbicidal effect score” value in the assay with Tomato (setting [1]), in the assay on Tomato (setting [2]), in the assay with Rice (setting [1]) and in the assay with Rice (setting [2]) was 0 throughout.
`CNC(=O)ON=C(C)CN(c1c(C)cccc1C)S(C)(=O)=O` [Example 248, N-[2-(methylcarbamoyloxyimino)propyl]-2',6'-dimethylmethanesulphonanilide] came in with an inhibition of acetylcholinesterase in the assay with acetylcholinesterase of 30%.
Regarding `Cc1ccc(N(CC(N)=S)S(C)(=O)=O)cc1Cl` [Example 150], the “growth regulatory or herbicidal effect score” value with Barley (setting [1]), in the assay on Barley (setting [2]), with Cotton (setting [1]), in the assay on Cotton (setting [2]), in the assay with Wheat (setting [1]) and in the assay on Wheat (setting [2]) was 0 in each case. For the same compound, the “growth regulatory or herbicidal effect score” value with Tomato (setting [1]), with Tomato (setting [2]), in the assay on Rice (setting [1]) and with Rice (setting [2]) was 0 each time.
